Assay [1] addresses T1, Axl (Homo sapiens, UniProt P30530).
T1 sequence (P30530 26-894): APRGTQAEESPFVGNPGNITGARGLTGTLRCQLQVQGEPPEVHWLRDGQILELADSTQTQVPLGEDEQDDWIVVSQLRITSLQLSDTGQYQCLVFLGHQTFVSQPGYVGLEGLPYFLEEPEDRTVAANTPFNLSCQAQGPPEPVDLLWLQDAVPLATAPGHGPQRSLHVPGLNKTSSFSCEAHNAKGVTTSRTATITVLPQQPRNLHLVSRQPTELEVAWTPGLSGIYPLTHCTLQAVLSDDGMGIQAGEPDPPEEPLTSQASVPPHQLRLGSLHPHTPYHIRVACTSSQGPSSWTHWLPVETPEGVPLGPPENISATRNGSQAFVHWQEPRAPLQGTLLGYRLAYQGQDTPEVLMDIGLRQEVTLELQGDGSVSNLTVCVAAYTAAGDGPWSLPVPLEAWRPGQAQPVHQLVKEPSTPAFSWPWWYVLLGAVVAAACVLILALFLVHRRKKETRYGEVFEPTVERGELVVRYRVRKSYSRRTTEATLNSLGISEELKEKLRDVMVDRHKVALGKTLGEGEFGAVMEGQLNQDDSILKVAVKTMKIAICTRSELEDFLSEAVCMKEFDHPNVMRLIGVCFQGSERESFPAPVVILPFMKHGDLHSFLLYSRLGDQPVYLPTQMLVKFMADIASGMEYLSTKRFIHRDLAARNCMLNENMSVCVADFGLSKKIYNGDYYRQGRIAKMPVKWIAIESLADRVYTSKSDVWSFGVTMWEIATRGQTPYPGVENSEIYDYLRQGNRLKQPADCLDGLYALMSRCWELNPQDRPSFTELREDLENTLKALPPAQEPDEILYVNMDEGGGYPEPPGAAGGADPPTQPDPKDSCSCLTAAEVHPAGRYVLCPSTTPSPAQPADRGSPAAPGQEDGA
Kind of assay: Biochemical potency, HTRF KinEASE-TK kinase assay. Also noted: purchased Invitrogen. The following applies: 5 nM AXL, 700 μM ATP. An outline of the steps: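 Compounds preincubated 1 h at RT with enzyme in 50 mM HEPES pH 7.4, 10 mM MgCl2, 0.01% BSA, 1 mM DTT; reactions then ran 2 h at RT with 5 nM AXL or 1 nM TYRO3/MER, 800 nM TK substrate-biotin, 700 μM ATP, 1% DMSO. HTRF 665/620 ratio read; percent activity calculated.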
On the technique in general: In TR-FRET formats the signal depends on donor and acceptor labels being close together.

The target in assay [2] is T1, Axl. Kind of assay: Axl NanoBRET intracellular kinase assay (intracellular binding, K-5 tracer displacement). Further details: host or cells: HEK-293. Particulars: HEK-293 cells transfected with Axl-NanoLuc, 0.35 μM K-5 NanoBRET tracer; read-out: Cell Binding AXL. Put shortly: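 Tracer displacement read as loss of 610/450 nm BRET after 1 h compound then 2 h 0.35 μM K-5 tracer exposure (37 °C) in transfected HEK-293 cells expressing Axl-NanoLuc (8K/well, 0.5% DMSO). Four-parameter regression yielded IC50.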
(In general: BRET reads energy transfer from a luciferase to a nearby fluorophore.)

pIC50: −log10 of the molar value.

As for `Cc1cccnc1-c1ccc(-c2c[nH]c3ncc(-c4ccc5c(c4)CC[C@@H](N4C6COCC4C6)CC5)cc23)cc1` [Example 1, 6-[(7S)-2-{3-[4-(3-Methylpyridin-2-yl)phenyl]-1H-pyrrolo[2,3-b]pyridin-5-yl}-6,7,8,9-tetrahydro-5H-benzo[7]annulen-7-yl]-3-oxa-6-azabicyclo[3.1.1]heptane], the pIC50 in assay [1] and in assay [2] was more than 7.00 throughout.

With `Cc1cccnc1-c1ccc(-c2n[nH]c3ncc(-c4ccc5c(c4)CC[C@@H](N4C6COCC4C6)CC5)cc23)cc1` [Example 2, 6-[(7S)-2-{3-[4-(3-Methylpyridin-2-yl)phenyl]-2H-pyrazolo[3,4-b]pyridin-5-yl}-6,7,8,9-tetrahydro-5H-benzo[7]annulen-7-yl]-3-oxa-6-azabicyclo[3.1.1]heptane], the pIC50 in assay [1] and in assay [2] was more than 7.00 each time.

On to `Cc1nncn1-c1ccc(-c2n[nH]c3ncc(-c4ccc5c(c4)CC[C@@H](N4C6COCC4C6)CC5)cc23)cc1` [Example 11, 6-[(7S)-2-{3-[4-(3-Methyl-4H-1,2,4-triazol-4-yl)phenyl]-1H-pyrazolo[3,4-b]pyridin-5-yl}-6,7,8,9-tetrahydro-5H-benzo[7]annulen-7-yl]-3-oxa-6-azabicyclo[3.1.1]heptane], for which the values for the pIC50 in assay [1] and in assay [2] were more than 7.00 and 6.00 to 7.00, respectively.

On to `Fc1cc(-c2c[nH]c3ncc(-c4ccc5c(c4)CC[C@@H](N4C6COCC4C6)CC5)cc23)ccc1-c1ccccn1` [Example 40, 6-[(7S)-2-{3-[3-Fluoro-4-(pyridin-2-yl)phenyl]-1H-pyrrolo[2,3-b]pyridin-5-yl}-6,7,8,9-tetrahydro-5H-benzo[7]annulen-7-yl]-3-oxa-6-azabicyclo[3.1.1]heptane], for which the figures for the pIC50 in assay [1] and in assay [2] were more than 7.00 and 6.00 to 7.00, respectively.

Turning to `c1cc(-c2ccc(-c3c[nH]c4ncc(-c5ccc6c(c5)CC[C@@H](N5C7COCC5C7)CC6)cc34)cc2)ccn1` [Example 41, 6-[(7S)-2-{3-[4-(Pyridin-4-yl)phenyl]-1H-pyrrolo[2,3-b]pyridin-5-yl}-6,7,8,9-tetrahydro-5H-benzo[7]annulen-7-yl]-3-oxa-6-azabicyclo[3.1.1]heptane], the pIC50 was more than 7.00 in assay [1] and 6.00 to 7.00 in assay [2].

For the compound `Fc1cccnc1-c1ccc(-c2c[nH]c3ncc(-c4ccc5c(c4)CC[C@@H](N4C6COCC4C6)CC5)cc23)cc1` [Example 42, 6-[(7S)-2-{3-[4-(3-Fluoropyridin-2-yl)phenyl]-1H-pyrrolo[2,3-b]pyridin-5-yl}-6,7,8,9-tetrahydro-5H-benzo[7]annulen-7-yl]-3-oxa-6-azabicyclo[3.1.1]heptane], the figures for the pIC50 in assay [1] and in assay [2] were more than 7.00 and 6.00 to 7.00, respectively.

As for `Clc1cccnc1-c1ccc(-c2c[nH]c3ncc(-c4ccc5c(c4)CC[C@@H](N4C6COCC4C6)CC5)cc23)cc1` [Example 43, 6-[(7S)-2-{3-[4-(3-Chloropyridin-2-yl)phenyl]-1H-pyrrolo[2,3-b]pyridin-5-yl}-6,7,8,9-tetrahydro-5H-benzo[7]annulen-7-yl]-3-oxa-6-azabicyclo[3.1.1]heptane], the pIC50 was more than 7.00 in assay [1] and 6.00 to 7.00 in assay [2].

`Clc1cc(-c2c[nH]c3ncc(-c4ccc5c(c4)CC[C@@H](N4C6COCC4C6)CC5)cc23)ccc1-c1ccccn1` [Example 44, 6-[(7S)-2-{3-[3-Chloro-4-(pyridin-2-yl)phenyl]-1H-pyrrolo[2,3-b]pyridin-5-yl}-6,7,8,9-tetrahydro-5H-benzo[7]annulen-7-yl]-3-oxa-6-azabicyclo[3.1.1]heptane]: the pIC50 in assay [1] and in assay [2] was more than 7.00 each time.

Take `c1cc(-n2cc(-c3c[nH]c4ncc(-c5ccc6c(c5)CC[C@@H](N5C7COCC5C7)CC6)cc34)cn2)ccn1` [Example 45, 6-[(7S)-2-{3-[1-(Pyridin-4-yl)-1H-pyrazol-4-yl]-1H-pyrrolo[2,3-b]pyridin-5-yl}-6,7,8,9-tetrahydro-5H-benzo[7]annulen-7-yl]-3-oxa-6-azabicyclo[3.1.1]heptane]: the pIC50 in assay [1] and in assay [2] was more than 7.00 each time.

On to `N#Cc1cccnc1-c1ccc(-c2c[nH]c3ncc(-c4ccc5c(c4)CC[C@@H](N4C6COCC4C6)CC5)cc23)cc1` [Example 46, 2-(4-{5-[(7S)-7-{3-Oxa-6-azabicyclo[3.1.1]heptan-6-yl}-6,7,8,9-tetrahydro-5H-benzo[7]annulen-2-yl]-1H-pyrrolo[2,3-b]pyridin-3-yl}phenyl)pyridine-3-carbonitrile], for which the pIC50 in assay [1] and in assay [2] was more than 7.00 throughout.

Take `Cc1cncnc1-c1ccc(-c2c[nH]c3ncc(-c4ccc5c(c4)CC[C@@H](N4C6COCC4C6)CC5)cc23)cc1` [Example 47, 6-[(7S)-2-{3-[4-(5-Methylpyrimidin-4-yl)phenyl]-1H-pyrrolo[2,3-b]pyridin-5-yl}-6,7,8,9-tetrahydro-5H-benzo[7]annulen-7-yl]-3-oxa-6-azabicyclo[3.1.1]heptane]: the pIC50 in assay [1] and in assay [2] was more than 7.00 each time.

Turning to `Cc1nccnc1-c1ccc(-c2c[nH]c3ncc(-c4ccc5c(c4)CC[C@@H](N4C6COCC4C6)CC5)cc23)cc1` [Example 48, 6-[(7S)-2-{3-[4-(3-Methylpyrazin-2-yl)phenyl]-1H-pyrrolo[2,3-b]pyridin-5-yl}-6,7,8,9-tetrahydro-5H-benzo[7]annulen-7-yl]-3-oxa-6-azabicyclo[3.1.1]heptane], the pIC50 in assay [1] and in assay [2] was more than 7.00 each time.

As to `Cc1ccnnc1-c1ccc(-c2c[nH]c3ncc(-c4ccc5c(c4)CC[C@@H](N4C6COCC4C6)CC5)cc23)cc1` [Example 49, 6-[(7S)-2-{3-[4-(4-Methylpyridazin-3-yl)phenyl]-1H-pyrrolo[2,3-b]pyridin-5-yl}-6,7,8,9-tetrahydro-5H-benzo[7]annulen-7-yl]-3-oxa-6-azabicyclo[3.1.1]heptane], the pIC50 in assay [1] and in assay [2] was more than 7.00 in each case.

With `C[C@@H]1CCCN1[C@@]1(C)CCc2ccc(-c3cnc4[nH]nc(-c5ccc(-c6ncco6)cc5)c4c3)cc2CC1` [Example 90, 2-(4-{5-[(7S)-7-Methyl-7-[(2R)-2-methylpyrrolidin-1-yl]-6,7,8,9-tetrahydro-5H-benzo[7]annulen-2-yl]-2H-pyrazolo[3,4-b]pyridin-3-yl}phenyl)-1,3-oxazole], the pIC50 in assay [1] and in assay [2] was more than 7.00 in each case.

Consider `C[C@@H]1CCCN1[C@@]1(C)CCc2ccc(-c3cnc4[nH]nc(-c5ccc(-c6nccs6)cc5)c4c3)cc2CC1` [Example 91, 2-(4-{5-[(7S)-7-Methyl-7-[(2R)-2-methylpyrrolidin-1-yl]-6,7,8,9-tetrahydro-5H-benzo[7]annulen-2-yl]-2H-pyrazolo[3,4-b]pyridin-3-yl}phenyl)-1,3-thiazole], for which the pIC50 in assay [1] and in assay [2] was more than 7.00 each time.

Turning to `CN(C)C(=O)c1ccccc1-c1ccc(-c2c[nH]c3ncc(-c4ccc5c(c4)CC[C@@H](N4C6COCC4C6)CC5)cc23)cc1` [Example 92, N,N-Dimethyl-4′-{5-[(7S)-7-{3-oxa-6-azabicyclo[3.1.1]heptan-6-yl}-6,7,8,9-tetrahydro-5H-benzo[7]annulen-2-yl]-1H-pyrrolo[2,3-b]pyridin-3-yl}-[1,1′-biphenyl]-2-carboxamide], the pIC50 in assay [1] and in assay [2] was more than 7.00 throughout.

Values taken from patent US12195482B1 (Arcus Biosciences, Inc., priority 2022, dated 2025).
